Measured values published in PubChem BioAssay (NCI).
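Values below derive from 48-hour exposures of cells grown in 96-well plates, with endpoints linearly interpolated between the two concentrations bracketing the appropriate inhibition level. Here, GI50 denotes the concentration required for 50% inhibition of growth. TGI denotes the concentration required for complete inhibition of growth.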

System: MDA-MB-468 breast
Experiment: NCI anticancer screen, dose series, 48 h

Row | Compound | GI50 | TGI
1 | c1cc(C2CCCCC2)ccc1-c1cnc2nonc2n1 | 316 nM | 1360 nM
2 | CC(=O)O[C@@H]1C2=C(C)C3(CC3)[C@@](C)(O)C(=O)C2=C[C@@]1(C)CO | 209 nM | 591 nM
3 | COc1ccc2c(CCCc3ccc(Cl)cc3Cl)c3[n+](cc2c1OC)CCc1cc2c(cc1-3)OCO2 | 195 nM | 894 nM
4 | COc1c(B(O)O)cccc1-c1nc2ccc3[nH]ncc3c2c2c1CCCC2 | 1690 nM | 4940 nM
5 | CC(C)c1[nH]nc2c(NCc3ccc(-c4ccccn4)cc3)nc(SCCN)nc12 | 3.35 nM | 12.7 nM
6 | C[C@H]1COCCN1c1nc(-c2cnc(N)cc2C(F)F)nc(N2CCOCC2)n1 | 108 nM | 732 nM
7 | CC1=CC(C)(C)Nc2ccc(Cc3ccc4c(c3)C(C)=CC(C)(C)N4)cc21 | 3810 nM | 16200 nM
8 | C=C1C(=O)O[C@H]2[C@H]1CC/C(COC(=O)CCCCCCCC(=O)OC/C1=C/CC[C@@]3(C)O[C@H]3[C@H]3OC(=O)C(=C)[C@@H]3CC1)=C\CC[C@@]1(C)O[C@@H]21 | 2370 nM | 6460 nM
9 | CCN(CC)S(=O)(=O)c1cccc(-c2ccc3c(NC(=O)C4CC4)n[nH]c3c2)c1 | 1220 nM | > 6250 nM
10 | COc1cc2c(NC3CCN(C(C)C)CC3)nc(C3CCCCC3)nc2cc1OCCCN1CCCC1 | 1420 nM | 3170 nM
11 | Cc1nc2sc(C(=O)Nc3ccccc3)c(N)c2cc1C(O)c1ccccc1 (stereo not given) | 233 nM | > 65300 nM
12 | CC1=NN(c2cccc(Cl)c2)C(=O)/C1=C\C=C\c1ccccc1 | 1660 nM | 6140 nM
13 | C(=C\c1ccncc1)/c1ccncc1 | > 100000 nM | > 100000 nM
14 | Cn1cc(C2=C(c3cc[nH]c3)C(=O)NC2=O)c2ccccc21 | 11900 nM | > 25000 nM
15 | CN(C)c1cc2c(Nc3ccc4c(cnn4Cc4ccccc4)c3)ncnc2cn1 | 136 nM | 1160 nM
16 | CC(C)(O)CCc1cccc(C(=O)c2cnn(-c3ccc(F)cc3)c2N)c1 | 13200 nM | > 25000 nM
17 | O=C(N=Nc1c(Cl)c(O)c2ccccc2c1O)C(=O)Nc1cccc(C(F)(F)F)c1 | 4160 nM | 15300 nM
18 | Cc1ccc2c(n1)C(=O)C(Cl)=C(Nc1cc(C(F)(F)F)cc(C(F)(F)F)c1)C2=O | 2010 nM | 4570 nM
19 | Cc1nc2c(O)c3c(c(O)c2nc1C)C1C=CC3CC1 | 559 nM | 1970 nM
20 | O=C(N/N=C/c1cc(Cl)ccc1O)c1ccccc1Nc1ccnc(C(F)(F)F)c1 | 265 nM | 2050 nM
21 | CN(C)CC1C(=O)O[C@H]2[C@H]1CC/C(COC(=O)NCc1ccc(Cn3c(=O)sn(CCCI)c3=O)cc1)=C\CC[C@@]1(C)O[C@@H]21 (stereo not given in full) | 700 nM | 1600 nM
22 | COCCNCc1ccc(-c2cc3nccc(Oc4ccc(NC(=O)C5(C(=O)Nc6ccc(F)cc6)CC5)cc4F)c3s2)nc1 | 1740 nM | 3410 nM
23 | Oc1ccc(Cl)cc1Sc1cc(Cl)ccc1O | 3130 nM | 9120 nM
24 | COc1ccc(/C=C2\COc3ccc(O)c(O)c3C2=O)cc1OC | 1580 nM | 4880 nM
25 | O=C(NCc1ccco1)C1CCN(S(=O)(=O)c2ccc(Cl)cc2)CC1 | 46000 nM | > 100000 nM
26 | Cc1c(Cl)cccc1NC(=O)c1sc2nc3c(cc2c1N)C(=O)CCC3 | 45.3 nM | 71700 nM
27 | CSc1nnc(-c2cc3c([nH]c4ccccc43)c(-c3cccc(O)c3)n2)n1-c1ccc(C)cc1 | 3700 nM | 33700 nM
28 | COC(=O)c1c2c(c(C)[n+]([O-])c1C)C(=O)C(NCc1ccc(F)cc1)=CC2=O | 598 nM | 2150 nM
29 | CCn1cc(C(=O)N/N=C/c2cccs2)c(=O)c2cc(F)c(N3CCNC(C)C3)c(F)c21 (stereo not given) | 1660 nM | 3270 nM
30 | O=C(NNc1nc2cc(F)cc(F)c2n2cccc12)c1cnccn1 | 331 nM | 2890 nM
